Consider eight compounds from patent US20040073958A1, “Transgenic animal having drug metabolism enzyme gene and utilization thereof” (priority 2001, published 2004).

Where “and” joins values, the source holds several entries; their conditions need not be identical. Equal entries are not always repeated.

For one data set, the system named is rats and Rhesus monkeys. To be noted: cited from earlier work; for teratogenicity in rats as compared with Rhesus monkeys: administered to rats at corresponding generation stages.
For another data set, the system named is rat. To be noted: early test using a rat; cited from earlier work.
The test system of a further data set is 36p Tg mice. The data set can be described thus: Teratogenicity and fetal toxicity effects of thalidomide in 36p Tg mouse. The settings on record: for Details of Malformation: number of fetuses in brackets. The protocol:
Frozen eggs of the transgenic mouse were prepared in accordance with “Example 4: Production of fertilized egg,” and fertilized eggs of the transgenic mouse were cryopreserved. The frozen fertilized eggs were melted, and 20 eggs were respectively transplanted into the oviducts of pseudopregnant female mice of the ICR lineage, and implanted. On the 9th day of gestation, thalidomide was administered into the maternal peritoneal cavity. The effect of thalidomide was tested at the dosage of: 100 mg/kg, and 200 mg/kg. A mixed solution of Tween 20 and physiological saline (1:3) was used as a vehicle. On the day before the delivery, which is the 19th day of gestation, the maternal body was subjected to laparotomy to observe the conditions inside the womb and the presence of teratogenicity and fetal toxicity in the generated and grown fetus. Also, tissues were collected from the fetuses generated and grown in the womb, or vestige of fetal matter in the womb, DNA was extracted therefrom, and the genotype was assayed by PCR The results are summarized in Table 4.

For another data set, the system named is rabbit. To be noted: administration of cyclooxygenase inhibitor; cited from earlier work.
A further data set relates to Salmonella TA100. The settings on record: cited from earlier work.

Consider `O=c1[nH]cc(F)c(=O)[nH]1` [5-fluorouracil], for which the “teratogenicity in rats as compared with Rhesus monkeys” value in the data set on rats and Rhesus monkeys is “teratogenicity was observed at a lower dose”.
With `O=C1CCC(N2C(=O)c3ccccc3C2=O)C(=O)N1` (centres unmarked) [Thalidomide, thalidomide], in the data set with rats and Rhesus monkeys (teratogenic sensitivity, monkeys versus rats), the “sensitivity of monkeys relative to that of rats” value was no less than 10 times. Besides, the “sensitivity of rats compared with that of Rhesus monkeys” value with rats and Rhesus monkeys (teratogenic sensitivity) is reported as “significantly lower”. For the same compound, the “malformation of the fetus” value in the data set on rat was “did not develop any malformation”. In addition, in the data set on 36p Tg mice (100 mg/kg i.p. day 9 of gestation, laparotomy day 19, single dam), the “Implants Total” value is 15 and 14. For the same compound, in the data set with 36p Tg mice (100 mg/kg, Total of 2 dams), the “Implants Total” value came to 29, the Implants/dam was found to be 14.5, the Live fetuses/dam is 1.5 and the “Malformations total (%)” value came out at 33.3%. Also, in the data set on 36p Tg mice (100 mg/kg, Total of 2 dams), the “Malformations/Tg (%)” value came to 100.0%, the “Malformations/nTg (%)” value is 0.0%, the “Resorptions (%)” value is 89.7% and the “Tg fetuses (%)” value is listed as 33.3%. In the data set with 36p Tg mice (100 mg/kg, Total of 2 dams), the “Tg/Malformations (%)” value was 100.0% and the “nTg fetuses (%)” value is given as 66.7%. Further, the “Details of Malformation” value in the data set on 36p Tg mice (100 mg/kg) is 100 mg/kg: umbilical hernia (1). Also, in the data set with 36p Tg mice (100 mg/kg, single dam), the “Malformations/Tg (%)” value is 100.0%; the “Malformations/nTg (%)” value was 0.0%; the “Resorptions (%)” value is 93.3% and 85.7%; the “Tg/Malformations (%)” value is recorded as 100.0%. The “Implants Total” value in the data set with 36p Tg mice (200 mg/kg i.p. day 9 of gestation, laparotomy day 19, single dam) was 8 and 16. Besides, in the data set on 36p Tg mice (200 mg/kg, Total of 2 dams), the “Implants Total” value was 24, the Implants/dam turned out to be 12.0, the Live fetuses/dam stood at 3.0 and the “Malformations total (%)” value was found to be 16.7%. Moreover, in the data set on 36p Tg mice (200 mg/kg, Total of 2 dams), the “Malformations/Tg (%)” value is given as 33.3%, the “Malformations/nTg (%)” value is 0.0%, the “Resorptions (%)” value is 70.8% and the “Tg fetuses (%)” value turned out to be 50.0%. In addition, in the data set on 36p Tg mice (200 mg/kg, Total of 2 dams), the “Tg/Malformations (%)” value is reported as 100.0% and the “nTg fetuses (%)” value was found to be 50.0%. For the same compound, in the data set with 36p Tg mice (200 mg/kg), the “Details of Malformation” value is recorded as 200 mg/kg: umbilical hernia (1). Besides, in the data set with 36p Tg mice (200 mg/kg, single dam), the “Malformations total (%)” value is 16.7%; the “Malformations/Tg (%)” value was 33.3%; the “Malformations/nTg (%)” value is 0.0%; the “Resorptions (%)” value is 100.0% and 56.3%. Further, in the data set with 36p Tg mice (200 mg/kg, single dam), the “Tg fetuses (%)” value came out at 50.0%, the “Tg/Malformations (%)” value was 100.0% and the “nTg fetuses (%)” value amounted to 50.0%.
With `CC(=O)Oc1ccccc1C(=O)O` [acetylsalicylic acid], the “effect on teratogenicity of thalidomide” value in the data set with rabbit is recorded as “suppresses the teratogenicity of thalidomide”. The “teratogenicity in rats as compared with Rhesus monkeys” value in the data set with rats and Rhesus monkeys was “teratogenicity was observed at a lower dose”.
On to `NC(=O)NO` [hydroxylurea], for which the “teratogenicity in rats as compared with Rhesus monkeys” value in the data set on rats and Rhesus monkeys is “teratogenicity was observed at a lower dose”.
Consider `CN(Cc1cnc2nc(N)nc(N)c2n1)c1ccc(C(=O)N[C@@H](CCC(=O)O)C(=O)O)cc1` [methotrexate], for which the “teratogenicity in rats as compared with Rhesus monkeys” value in the data set on rats and Rhesus monkeys is reported as “teratogenicity was observed at a lower dose”. Further, the “sensitivity of rats higher than that of monkeys” value in the data set with rats and Rhesus monkeys (teratogenic sensitivity, rats versus monkeys) is recorded as 20 times.
As for `CC1=C(/C=C/C(C)=C/C=C/C(C)=C/C(=O)O)C(C)(C)CCC1` [retinoic acid], in the data set on rats and Rhesus monkeys, the “teratogenicity in rats as compared with Rhesus monkeys” value is listed as “teratogenicity was observed at a lower dose”.
In the case of `CC[C@]1(O)C[C@H]2CN(CCc3c([nH]c4ccccc34)[C@@](C(=O)OC)(c3cc4c(cc3OC)N(C=O)[C@H]3[C@@](O)(C(=O)OC)[C@H](OC(C)=O)[C@]5(CC)C=CCN6CC[C@]43[C@@H]65)C2)C1` [vincristine], the “teratogenicity in rats as compared with Rhesus monkeys” value in the data set on rats and Rhesus monkeys is reported as “teratogenicity was observed at a lower dose”.
With Aflatoxin B1, the “metabolic activation in mutagenicity test” value in the data set with Salmonella TA100 is recorded as “efficiently activated”.
